The results in this text go back to patent US8735414B2 (priority 2009, dated 2014).

Data set [1] has as its system bicistronic HCV replicon (replicon RNA, GenBank Accession No. AJ242654). Kind of data set: HCV Replicon Assay. In kind it is cell-based. The note with it: Hepatitis C virus, 72 h, read-out: Replicon IC50. A general note: In antiviral work, replicon cells carry a viral genome segment that copies itself.

Bounds are passed on as bounds.

In general, IC50 refers to the concentration at which inhibition is half-maximal. Usually melting point stands for the temperature, or range, at which the solid turns liquid. Turning to `Cc1cc2c(C#N)c(-c3ccc(S(=O)(=O)NC(CF)CF)cn3)n(C3CCC3)c2cc1F` [compound 493, 6-(3-cyano-1-cyclobutyl-6-fluoro-5-methyl-1H-indol-2-yl)-N-(1,3-difluoropropan-2-yl)pyridine-3-sulfonamide], the melting point was 209 to 213 °C. In data set [1], the IC50 is less than 500 nM.
For the compound `CC(C)NS(=O)(=O)c1cnc(-c2c(C#N)c3ccc(OC(F)F)cc3n2C(C)C)nc1` [compound 171, 2-[3-cyano-6-(difluoromethoxy)-1-(propan-2-yl)-1H-indol-2-yl]-N-(propan-2-yl)pyrimidine-5-sulfonamide], the melting point lay within 193 to 196 °C. Besides, in data set [1], the IC50 was less than 500 nM.
The compound `Cc1cc2c(cc1F)c(C#N)c(-c1ccc(S(=O)(=O)N[C@@H](C)C(F)(F)F)cn1)n2-c1ncc(Cl)cn1` [compound 914, 6-[1-(5-chloropyrimidin-2-yl)-3-cyano-5-fluoro-6-methyl-1H-indol-2-yl]-N-[(2S)-1,1,1-trifluoropropan-2-yl]pyridine-3-sulfonamide] gave a melting point of 213 to 218 °C. In addition, in data set [1], the IC50 was less than 500 nM.
`C[C@@H](NS(=O)(=O)c1ccc(-c2c(C#N)c3ccc(F)cc3n2C2CCCC2)nc1)C(F)(F)F` [compound 218, 6-(3-cyano-1-cyclopentyl-6-fluoro-1H-indol-2-yl)-N-[(2R)-1,1,1-trifluoropropan-2-yl]pyridine-3-sulfonamide] had a melting point of 141 to 144 °C. For the same compound, the IC50 in data set [1] is less than 500 nM.
In turn, `CS(=O)(=O)Nc1ccc(-c2c(C#N)c3ccc(C4CC4)cc3n2C2CCC2)cn1` [compound 287, N-[5-(3-cyano-1-cyclobutyl-6-cyclopropyl-1H-indol-2-yl)pyridin-2-yl]methanesulfonamide] gave a melting point of 239 to 241 °C. In data set [1], the IC50 was in the range of 500 to 2000 nM.
In turn, `CC[C@H](NS(=O)(=O)c1ccc(-c2c(C#N)c3cc(F)c(C)cc3n2C2CCCC2)nc1)C(F)(F)F` [compound 821, 6-(3-cyano-1-cyclopentyl-5-fluoro-6-methyl-1H-indol-2-yl)-N-[(2S)-1,1,1-trifluorobutan-2-yl]pyridine-3-sulfonamide] had a melting point of 201 to 207 °C. Besides, in data set [1], the IC50 is less than 500 nM.
The compound `Cc1cc2c(cc1F)c(C#N)c(-c1ccc(S(=O)(=O)N[C@@H](C)C(F)(F)F)cn1)n2-c1ccc(F)nc1` [compound 1015, 6-[3-cyano-5-fluoro-1-(6-fluoropyridin-3-yl)-6-methyl-1H-indol-2-yl]-N-[(2S)-1,1,1-trifluoropropan-2-yl]pyridine-3-sulfonamide] had a melting point of 246.8 to 252.7 °C. Moreover, in data set [1], the IC50 was less than 500 nM.
In the same order, the values of `N#Cc1c(-c2ccc(S(=O)(=O)NC(CF)CF)cn2)n(C2CCC2)c2cc(F)ccc12` [compound 56, 6-(3-cyano-1-cyclobutyl-6-fluoro-1H-indol-2-yl)-N-(1,3-difluoropropan-2-yl)pyridine-3-sulfonamide] are 206 to 208 °C and less than 500 nM.
As to `CCc1cc2c(cc1F)c(C(N)=O)c(-c1ccc(S(=O)(=O)N[C@@H](C)C(F)(F)F)cn1)n2C1CCCC1` [compound 830, 1-cyclopentyl-6-ethyl-5-fluoro-2-(5-{[(2S)-1,1,1-trifluoropropan-2-yl]sulfamoyl}pyridin-2-yl)-1H-indole-3-carboxamide], the melting point lay in the range of 237 to 238 °C. Further, the IC50 in data set [1] was less than 500 nM.
With `CCn1c(-c2ccc(N(CC#N)S(=O)(=O)C3CC3)nc2)c(C#N)c2ccc(OC(C)C)cc21` [compound 294, N-{5-[3-cyano-1-ethyl-6-(propan-2-yloxy)-1H-indol-2-yl]pyridin-2-yl}-N-(cyanomethyl)cyclopropanesulfonamide], the melting point was in the range of 236 to 238 °C. Further, the IC50 in data set [1] was in the range of 500 to 2000 nM.
`CC1(NS(=O)(=O)c2ccc(-c3c(C#N)c4cc(Cl)c(OC(F)F)cc4n3C3CCC3)nc2)CC1` [compound 658, 6-[5-chloro-3-cyano-1-cyclobutyl-6-(difluoromethoxy)-1H-indol-2-yl]-N-(1-methylcyclopropyl)pyridine-3-sulfonamide] showed a melting point of 218 to 226 °C. Besides, in data set [1], the IC50 is less than 500 nM.
In turn, `CC(C)Sc1ccc2c(C#N)c(-c3ccc(S(=O)(=O)N4CCCCC4)cn3)n(C3CCC3)c2c1` [compound 22, 1-cyclobutyl-2-[5-(piperidin-1-ylsulfonyl)pyridin-2-yl]-6-(propan-2-ylsulfanyl)-1H-indole-3-carbonitrile] registered a melting point of 169 to 171 °C. In data set [1], the IC50 lay in the range of 500 to 2000 nM.
The compound `CCCS(=O)(=O)Nc1ccc(-c2c(C#N)c3ccc(Oc4ncccn4)cc3n2C2CCC2)nc1` [compound 271, N-{6-[3-cyano-1-cyclobutyl-6-(pyrimidin-2-yloxy)-1H-indol-2-yl]pyridin-3-yl}propane-1-sulfonamide] returned a melting point of 206 to 208 °C. For the same compound, the IC50 in data set [1] was 500 to 2000 nM.
On the same counts, the results for `C[C@@H](NS(=O)(=O)c1ccc(-c2c(C#N)c3ccc(F)cc3n2C2CCC2)nc1)C(F)(F)F` [compound 215, 6-(3-cyano-1-cyclobutyl-6-fluoro-1H-indol-2-yl)-N-[(2R)-1,1,1-trifluoropropan-2-yl]pyridine-3-sulfonamide] are 178 to 180 °C and 500 to 2000 nM.
For the compound `CC(C)NS(=O)(=O)c1ccc(-c2c(C#N)c3ccc(OC(F)(F)F)cc3n2C(C)C)nc1` [compound 12, 6-[3-cyano-1-(propan-2-yl)-6-(trifluoromethoxy)-1H-indol-2-yl]-N-(propan-2-yl)pyridine-3-sulfonamide], the melting point was 160 to 162 °C. Also, in data set [1], the IC50 lay in the range of 500 to 2000 nM.
`C[C@@H](NS(=O)(=O)c1ccc(-c2c(C#N)c3cc(F)ccc3n2C2CCC2)nc1)C(F)(F)F` [compound 219, 6-(3-cyano-1-cyclobutyl-5-fluoro-1H-indol-2-yl)-N-[(2R)-1,1,1-trifluoropropan-2-yl]pyridine-3-sulfonamide] yielded a melting point of 109 to 110 °C. Besides, in data set [1], the IC50 is less than 500 nM.
On to `N#Cc1c(-c2ncc(S(=O)(=O)NC(CF)CF)cn2)n(C2CCCC2)c2cc(OC(F)(F)F)ccc12` [compound 178, 2-[3-cyano-1-cyclopentyl-6-(trifluoromethoxy)-1H-indol-2-yl]-N-(1,3-difluoropropan-2-yl)pyrimidine-5-sulfonamide], for which the melting point was in the range of 181 to 187 °C. In addition, in data set [1], the IC50 is less than 500 nM.
Consider `Cc1cc2c(cc1F)c(C#N)c(-c1ccc(S(=O)(=O)N[C@@H](C)C(F)(F)F)cn1)n2C1CCCCC1` [compound 678, 6-(3-cyano-1-cyclohexyl-5-fluoro-6-methyl-1H-indol-2-yl)-N-[(2S)-1,1,1-trifluoropropan-2-yl]pyridine-3-sulfonamide], for which the melting point fell in the range of 224 to 229 °C. Moreover, the IC50 in data set [1] was less than 500 nM.
The compound `Cc1ccc2c(c1)c(C#N)c(-c1ccc(S(=O)(=O)N[C@H](C)C(F)(F)F)cn1)n2CC1CC1` [compound 458, 6-[3-cyano-1-(cyclopropylmethyl)-5-methyl-1H-indol-2-yl]-N-[(2R)-1,1,1-trifluoropropan-2-yl]pyridine-3-sulfonamide] registered a melting point of 166 to 172 °C. Besides, in data set [1], the IC50 is less than 500 nM.
Consider `CC(C)(C)S(=O)(=O)Nc1ccc(-c2c(C(N)=O)c3c(F)cc(C4CC4)cc3n2C2CCCCC2)nc1` [compound 1097, 2-{5-[(tert-butylsulfonyl)amino]pyridin-2-yl}-1-cyclohexyl-6-cyclopropyl-4-fluoro-1H-indole-3-carboxamide], for which the melting point is 275 to 285 °C (dec.). The IC50 in data set [1] is less than 500 nM.
In the same order, the values of `C[C@H](NS(=O)(=O)c1ccc(-c2c(C#N)c3cc(F)c(Br)cc3n2-c2ncccn2)nc1)C(F)(F)F` [compound 895, 6-[6-bromo-3-cyano-5-fluoro-1-(pyrimidin-2-yl)-1H-indol-2-yl]-N-[(2S)-1,1,1-trifluoropropan-2-yl]pyridine-3-sulfonamide] are 224 to 226 °C and less than 500 nM.
In the same order, the values of `N#Cc1c(-c2ccc(S(=O)(=O)NC(CF)CF)cn2)n(C2CCC2)c2cc(OC(F)F)c(F)cc12` [compound 542, 6-[3-cyano-1-cyclobutyl-6-(difluoromethoxy)-5-fluoro-1H-indol-2-yl]-N-(1,3-difluoropropan-2-yl)pyridine-3-sulfonamide] are 160 to 164 °C and less than 500 nM.
In the same order, the values of `N#Cc1c(-c2ccc(S(=O)(=O)NC(CF)CF)cn2)n(-c2ccccc2)c2ccc(Cl)cc12` [compound 112, 6-(5-chloro-3-cyano-1-phenyl-1H-indol-2-yl)-N-(1,3-difluoropropan-2-yl)pyridine-3-sulfonamide] are 192 to 196 °C and less than 500 nM.
As for `C[C@H](NS(=O)(=O)c1ccc(-c2c(Cl)c3cc(F)c(C4CC4)cc3n2-c2ncccn2)nc1)C(F)(F)F` [compound 947, 6-[3-chloro-6-cyclopropyl-5-fluoro-1-(pyrimidin-2-yl)-1H-indol-2-yl]-N-[(2S)-1,1,1-trifluoropropan-2-yl]pyridine-3-sulfonamide], the melting point lay within 248 to 250 °C. The IC50 in data set [1] is less than 500 nM.
In the same order, the values of `CCc1cc2c(cc1F)c(C#N)c(-c1ccc(S(=O)(=O)N[C@H](C)C(F)(F)F)cn1)n2-c1ccc(F)cn1` [compound 880, 6-[3-cyano-6-ethyl-5-fluoro-1-(5-fluoropyridin-2-yl)-1H-indol-2-yl]-N-[(2R)-1,1,1-trifluoropropan-2-yl]pyridine-3-sulfonamide] are 209 to 216 °C and less than 500 nM.
Take `N#Cc1c(-c2ncc(S(=O)(=O)NC(CF)CF)cn2)n(C2CCCCC2)c2cc(OC(F)(F)F)ccc12` [compound 306, 2-[3-cyano-1-cyclohexyl-6-(trifluoromethoxy)-1H-indol-2-yl]-N-(1,3-difluoropropan-2-yl)pyrimidine-5-sulfonamide]: the melting point was in the range of 168 to 170 °C. In addition, the IC50 in data set [1] fell in the range of 500 to 2000 nM.
